According to PubChem BioAssay (NCI):
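Tested at 5 concentrations; 48 h exposure; 96-well plates; endpoints linearly interpolated, else capped at highest concentration. Abbreviation: GI50, concentration required for 50% inhibition of growth. TGI marks complete inhibition of growth.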

Legend:
Assay in all cases: NCI tumour cell line growth inhibition, 48 h
SK-MEL-5 melanoma = system: SK-MEL-5 melanoma
OVCAR-3 ovarian = system: OVCAR-3 ovarian
OVCAR-4 ovarian = system: OVCAR-4 ovarian
U251 CNS = system: U251 CNS
HOP-92 NSCLC = system: HOP-92 NSCLC
MDA-MB-231 breast = system: MDA-MB-231 breast
PC-3 prostate = system: PC-3 prostate
HT29 colon = system: HT29 colon
HS 578T breast = system: HS 578T breast
COLO 205 colon = system: COLO 205 colon
ACHN renal = system: ACHN renal
T-47D breast = system: T-47D breast
SK-MEL-2 melanoma = system: SK-MEL-2 melanoma
IGROV1 ovarian = system: IGROV1 ovarian
NCI-H23 lung = system: NCI-H23 lung
DU-145 prostate = system: DU-145 prostate
SNB-19 CNS = system: SNB-19 CNS
A549 NSCLC = system: A549 NSCLC
MOLT-4 leukemia = system: MOLT-4 leukemia
TK-10 renal = system: TK-10 renal
RPMI-8226 leukemia = system: RPMI-8226 leukemia
SF-539 CNS = system: SF-539 CNS
OVCAR-8 ovarian = system: OVCAR-8 ovarian
NCI/ADR-RES ovarian = system: NCI/ADR-RES ovarian
SN12C renal = system: SN12C renal
SF-268 CNS = system: SF-268 CNS
MDA-MB-435 = system: MDA-MB-435
UO-31 renal = system: UO-31 renal
NCI-H522 lung = system: NCI-H522 lung
HCT-116 colon = system: HCT-116 colon
SW-620 colon = system: SW-620 colon
HCT-15 colon = system: HCT-15 colon
MCF7 breast = system: MCF7 breast
K-562 leukemia = system: K-562 leukemia
M14 melanoma = system: M14 melanoma
UACC-257 melanoma = system: UACC-257 melanoma
SNB-75 CNS = system: SNB-75 CNS
MALME-3M melanoma = system: MALME-3M melanoma
HOP-62 NSCLC = system: HOP-62 NSCLC
OVCAR-5 ovarian = system: OVCAR-5 ovarian
LOX IMVI melanoma = system: LOX IMVI melanoma
NCI-H460 lung = system: NCI-H460 lung
BT-549 breast = system: BT-549 breast
SR leukemia = system: SR leukemia
786-0 renal = system: 786-0 renal
SF-295 CNS = system: SF-295 CNS
SK-OV-3 ovarian = system: SK-OV-3 ovarian
UACC-62 melanoma = system: UACC-62 melanoma
SK-MEL-28 melanoma = system: SK-MEL-28 melanoma
EKVX NSCLC = system: EKVX NSCLC
NCI-H226 lung = system: NCI-H226 lung
CCRF-CEM leukemia = system: CCRF-CEM leukemia
CAKI-1 renal = system: CAKI-1 renal
KM12 colon = system: KM12 colon
HCC-2998 colon = system: HCC-2998 colon
RXF 393 renal = system: RXF 393 renal
A498 renal = system: A498 renal
HL-60(TB) leukemia = system: HL-60(TB) leukemia

CC(=O)c1c(CO[N+](=O)[O-])n([O-])c2ccccc2[n+]1=O
TGI (SK-MEL-5 melanoma): > 100 µM | TGI (OVCAR-3 ovarian): > 100 µM | TGI (OVCAR-4 ovarian): > 100 µM | TGI (U251 CNS): > 100 µM | TGI (HOP-92 NSCLC): > 100 µM | TGI (MDA-MB-231 breast): > 100 µM | TGI (PC-3 prostate): > 100 µM | TGI (HT29 colon): > 100 µM | TGI (HS 578T breast): > 100 µM | TGI (COLO 205 colon): > 100 µM | TGI (ACHN renal): > 100 µM | TGI (T-47D breast): > 100 µM | TGI (SK-MEL-2 melanoma): > 100 µM | TGI (IGROV1 ovarian): > 100 µM | TGI (NCI-H23 lung): > 100 µM | TGI (DU-145 prostate): > 100 µM | TGI (SNB-19 CNS): > 100 µM | TGI (A549 NSCLC): > 100 µM | TGI (MOLT-4 leukemia): > 100 µM | TGI (TK-10 renal): > 100 µM | TGI (RPMI-8226 leukemia): > 100 µM | TGI (SF-539 CNS): > 100 µM | TGI (OVCAR-8 ovarian): > 100 µM | TGI (NCI/ADR-RES ovarian): > 100 µM | TGI (SN12C renal): > 100 µM | TGI (SF-268 CNS): > 100 µM | TGI (MDA-MB-435): > 100 µM | TGI (UO-31 renal): > 100 µM | TGI (NCI-H522 lung): > 100 µM | TGI (HCT-116 colon): > 100 µM | TGI (SW-620 colon): > 100 µM | TGI (HCT-15 colon): > 100 µM | TGI (MCF7 breast): > 100 µM | TGI (K-562 leukemia): > 100 µM | TGI (M14 melanoma): > 100 µM | TGI (UACC-257 melanoma): > 100 µM | TGI (SNB-75 CNS): > 100 µM | TGI (MALME-3M melanoma): > 100 µM | TGI (HOP-62 NSCLC): > 100 µM | TGI (OVCAR-5 ovarian): > 100 µM | TGI (LOX IMVI melanoma): > 100 µM | TGI (NCI-H460 lung): > 100 µM | TGI (BT-549 breast): > 100 µM | TGI (SR leukemia): > 100 µM | TGI (786-0 renal): > 100 µM | TGI (SF-295 CNS): > 100 µM | TGI (SK-OV-3 ovarian): > 100 µM | TGI (UACC-62 melanoma): > 100 µM | TGI (SK-MEL-28 melanoma): > 100 µM | TGI (EKVX NSCLC): > 100 µM | TGI (NCI-H226 lung): > 100 µM | TGI (CCRF-CEM leukemia): > 100 µM | TGI (CAKI-1 renal): > 100 µM

O=C(/C=C/C12c3ccccc3C(c3ccccc31)C1C(=O)NC(=O)C12)c1ccc(F)cc1 (configuration not stated)
GI50 (SK-MEL-5 melanoma): 1.72 µM | TGI (SK-MEL-5 melanoma): 3.16 µM | GI50 (OVCAR-3 ovarian): 1.7 µM | TGI (OVCAR-3 ovarian): 3.15 µM | GI50 (OVCAR-4 ovarian): 3.46 µM | TGI (OVCAR-4 ovarian): 13.2 µM | GI50 (KM12 colon): 1.78 µM | TGI (KM12 colon): 3.43 µM | GI50 (U251 CNS): 1.63 µM | TGI (U251 CNS): 3.07 µM | GI50 (HOP-92 NSCLC): 1.59 µM | TGI (HOP-92 NSCLC): 3.55 µM | GI50 (MDA-MB-231 breast): 3.05 µM | TGI (MDA-MB-231 breast): 9.58 µM | GI50 (PC-3 prostate): 1.66 µM | TGI (PC-3 prostate): 3.38 µM | GI50 (HT29 colon): 2.34 µM | TGI (HT29 colon): 5.21 µM | GI50 (HS 578T breast): 2.28 µM | TGI (HS 578T breast): 7.84 µM | GI50 (HCC-2998 colon): 1.62 µM | TGI (HCC-2998 colon): 3.1 µM | GI50 (COLO 205 colon): 2.18 µM | TGI (COLO 205 colon): 4.27 µM | GI50 (ACHN renal): 2.43 µM | TGI (ACHN renal): 6.18 µM | GI50 (T-47D breast): 2.52 µM | TGI (T-47D breast): 8.13 µM | GI50 (SK-MEL-2 melanoma): 2.06 µM | TGI (SK-MEL-2 melanoma): 4.23 µM | GI50 (IGROV1 ovarian): 2.09 µM | TGI (IGROV1 ovarian): 5.9 µM | GI50 (NCI-H23 lung): 1.83 µM | TGI (NCI-H23 lung): 3.91 µM | GI50 (DU-145 prostate): 1.63 µM | TGI (DU-145 prostate): 3 µM | GI50 (SNB-19 CNS): 1.65 µM | TGI (SNB-19 CNS): 3.18 µM | GI50 (A549 NSCLC): 2.39 µM | TGI (A549 NSCLC): 7.01 µM | GI50 (MOLT-4 leukemia): 0.457 µM | TGI (MOLT-4 leukemia): 2.9 µM | GI50 (TK-10 renal): 2.69 µM | TGI (TK-10 renal): 6.43 µM | GI50 (RXF 393 renal): 1.77 µM | TGI (RXF 393 renal): 3.3 µM | GI50 (RPMI-8226 leukemia): 1.62 µM | TGI (RPMI-8226 leukemia): 4.39 µM | GI50 (SF-539 CNS): 1.7 µM | TGI (SF-539 CNS): 3.11 µM | GI50 (OVCAR-8 ovarian): 1.86 µM | TGI (OVCAR-8 ovarian): 4.84 µM | GI50 (NCI/ADR-RES ovarian): 1.87 µM | TGI (NCI/ADR-RES ovarian): 4.03 µM | GI50 (SN12C renal): 1.7 µM | TGI (SN12C renal): 3.29 µM | GI50 (SF-268 CNS): 1.65 µM | TGI (SF-268 CNS): 3.2 µM | GI50 (MDA-MB-435): 2.44 µM | TGI (MDA-MB-435): 6.41 µM | GI50 (UO-31 renal): 1.42 µM | TGI (UO-31 renal): 2.85 µM | GI50 (NCI-H522 lung): 2.14 µM | TGI (NCI-H522 lung): 4.98 µM | GI50 (HCT-116 colon): 1.58 µM | TGI (HCT-116 colon): 3.41 µM | GI50 (SW-620 colon): 2.12 µM | TGI (SW-620 colon): 4.59 µM | GI50 (HCT-15 colon): 1.66 µM | TGI (HCT-15 colon): 4.2 µM | GI50 (MCF7 breast): 1.66 µM | TGI (MCF7 breast): 4.48 µM | GI50 (K-562 leukemia): 1.42 µM | TGI (K-562 leukemia): 4.75 µM | GI50 (M14 melanoma): 1.92 µM | TGI (M14 melanoma): 3.96 µM | GI50 (UACC-257 melanoma): 1.79 µM | TGI (UACC-257 melanoma): 3.37 µM | GI50 (SNB-75 CNS): 1.39 µM | TGI (SNB-75 CNS): 2.92 µM | GI50 (MALME-3M melanoma): 1.97 µM | TGI (MALME-3M melanoma): 4.02 µM | GI50 (HOP-62 NSCLC): 2.63 µM | TGI (HOP-62 NSCLC): 7.4 µM | GI50 (OVCAR-5 ovarian): 1.92 µM | TGI (OVCAR-5 ovarian): 4.12 µM | GI50 (LOX IMVI melanoma): 1.67 µM | TGI (LOX IMVI melanoma): 3.28 µM | GI50 (NCI-H460 lung): 2.04 µM | TGI (NCI-H460 lung): 5.05 µM | GI50 (BT-549 breast): 1.69 µM | TGI (BT-549 breast): 3.42 µM | GI50 (786-0 renal): 1.79 µM | TGI (786-0 renal): 3.35 µM | GI50 (A498 renal): 1.68 µM | TGI (A498 renal): 3.11 µM | GI50 (SF-295 CNS): 2.01 µM | TGI (SF-295 CNS): 4.24 µM | GI50 (SK-OV-3 ovarian): 2.79 µM | TGI (SK-OV-3 ovarian): 8.03 µM | GI50 (UACC-62 melanoma): 1.68 µM | TGI (UACC-62 melanoma): 3.48 µM | GI50 (SK-MEL-28 melanoma): 1.85 µM | TGI (SK-MEL-28 melanoma): 3.39 µM | GI50 (EKVX NSCLC): 1.7 µM | TGI (EKVX NSCLC): 4.45 µM | GI50 (NCI-H226 lung): 2.74 µM | TGI (NCI-H226 lung): 9.51 µM | GI50 (CCRF-CEM leukemia): 2.45 µM | TGI (CCRF-CEM leukemia): 8.42 µM | GI50 (CAKI-1 renal): 1.87 µM | TGI (CAKI-1 renal): 4.37 µM | GI50 (HL-60(TB) leukemia): 0.0217 µM | TGI (HL-60(TB) leukemia): 2.1 µM
